The record followed here is ChEMBL document CHEMBL1152694, “Synthetic medicinal chemistry of selected antimalarial natural products” (Bioorg Med Chem, 2009).

One data set has as its system Plasmodium berghei. Nature of the data set: Antimalarial activity against Plasmodium berghei infected mice (Mus musculus). It counts as functional.
Data set [1] is described as follows: Selectivity ratio of cytotoxicity to human KB cells to antimalarial activity against Plasmodium falciparum. The class given is cell-based.

In turn, `CC1(C)[C@@H](n2cnc3ccccc3c2=O)C(=O)C[C@@H]2[C@@H](O)CCCN21` had an ED50 in the data set with Plasmodium berghei of 6 µmol/kg.

`CC1(C)[C@H](n2cnc3ccccc3c2=O)CC[C@H]2[C@@H](O)CCCN21` returned an ED50 in the data set on Plasmodium berghei of 145 µmol/kg.

As to `CC[C@](C)(O)C(=O)O[C@H]1C(=O)O[C@@H]2C[C@H]3C(C)=CC(=O)[C@@H](O)[C@]3(C)[C@H]3[C@@]4(O)OC[C@]32[C@@H]1[C@@H](C)[C@H]4O` [GLAUCARUBINONE], the selectivity ratio in data set [1] is 285.
